Assay results published in patent publication US20100280085A1, “CHEMICAL COMPOUNDS” (SYNGENTA CROP PROTECTION, INC., priority 2006, published 2010).
Where two headings read alike, the source gives them in different places.

Key:
[1] = test system: Myzus persicae (Green peach aphid); test: Myzus persicae sunflower leaf disc spray test; format: in vivo; settings: foliar, 144 h, read-out: control of Myzus persicae
Procedure: (§1) This Example illustrates the pesticidal/insecticidal properties of compounds of formula (I). The compounds numbers are those of the characterising data tables. Test against were performed as follows:
Heliothis virescens (Tobacco budworm): Eggs (0-24 h old) were placed in 24-well microtiter plate on artificial diet and treated with test solutions at an application rate of 200 ppm by pipetting. After an incubation period of 4 days, samples were checked for egg mortality, larval mortality, and growth regulation. The following compounds gave at least 80% control of Heliothis virescens: 1.004, 1.005, 1.012, 1.016, 4.001, 31.016, 31.018. Myzus persicae (Green peach aphid): Sunflower leaf discs were placed on agar in a 24-well microtiter plate and sprayed with test solutions at an application rate of 200 ppm. After drying, the leaf discs were infested with an aphid population of mixed ages. After an incubation period of 6 DAT, samples were checked for mortality.

[2] = test system: Myzus persicae (Green peach aphid); test: Myzus persicae test, roots of infested pea seedlings placed in test solution; format: in vivo; settings: 144 h, read-out: control of Myzus persicae
Procedure: as §1
Myzus persicae (Green peach aphid): Roots of pea seedlings, infested with an aphid population of mixed ages, were placed directly in the test solutions of 24 ppm. 6 days after introduction, samples were checked for mortality.

[3] = roots of pea seedlings in test solutions of 24 ppm, mixed ages, mortality after 6 days
[4] = sunflower leaf discs sprayed at 200 ppm, mixed ages, mortality at 6 DAT

| SMILES | pest or weed control at 24 ppm [2, 3] [%] | pest or weed control at 200 ppm [1, 4] [%] | further results |
| --- | --- | --- | --- |
| COc1ccc2c(c1)CCC2NC1=NCCO1 (stereo not drawn) | – | – | melting point: 115 to 118 °C |
| COc1cc2c(cc1OC)C(NC1=NCCO1)CC2 (stereo not drawn) | – | – | melting point: 109 to 113 °C |
| c1ccc(C2CC(NC3=NCCO3)c3ccccc32)cc1 (stereo not drawn) | – | – | melting point: > 120 °C (dec.) |
| O=C(NCCCl)NC1CCc2ccccc21 (racemic) [Compound 31.017] | – | – | pest or weed control at 200 ppm [1]: ≥ 80%; pest or weed control at 24 ppm [2]: ≥ 80% |
| OC1Cc2ccccc2C1NC1=NCCO1 (stereo not drawn) [1.013] | – | – | melting point: 139 to 141 °C |
| OC1Cc2ccccc2C1NC1=NCCO1 (stereo not drawn) [1.014] | – | – | melting point: 140 to 142 °C |
| CC1Cc2ccccc2C1NC1=NCCO1 (stereo not drawn) [Compound 1.001] | ≥ 80 | – | – |
| CC1CC(NC2=NCCO2)c2ccccc21 (stereo not drawn) [Compound 1.002] | ≥ 80 | ≥ 80 | – |
| Cc1cccc2c1CCC2NC1=NCCO1 (stereo not drawn) [Compound 1.004] | ≥ 80 | ≥ 80 | – |
| Fc1ccc2c(c1)CCC2NC1=NCCO1 (stereo not drawn) [Compound 1.005] | – | ≥ 80 | – |
| Brc1ccc2c(c1)CCC2NC1=NCCO1 (stereo not drawn) [Compound 1.006] | – | ≥ 80 | – |
| Clc1ccc2c(c1)CCC2NC1=NCCO1 (stereo not drawn) [Compound 1.007] | – | ≥ 80 | – |
| COc1ccc2c(c1)C(NC1=NCCO1)CC2 (stereo not drawn) [Compound 1.009] | – | ≥ 80 | – |
| Cc1ccc2c(c1)CCC2NC1=NCCO1 (stereo not drawn) [Compound 1.010] | ≥ 80 | ≥ 80 | – |
| Cc1ccc2c(c1)C(NC1=NCCO1)CC2 (stereo not drawn) [Compound 1.012, (4,5-Dihydro-oxazol-2-yl)-(6-methyl-indan-1-yl)-amine] | ≥ 80 | ≥ 80 | – |
| CC1Cc2ccccc2C1NC1=NCCO1 (stereo not drawn) [Compound 1.015] | – | ≥ 80 | – |
| Fc1cccc2c1CCC2NC1=NCCO1 (stereo not drawn) [Compound 1.016] | ≥ 80 | ≥ 80 | – |
| c1ccc2c(c1)CCC2NC1=NCCO1 (stereo not drawn) [Compound 1.017] | ≥ 80 | ≥ 80 | – |
| CC1Cc2ccccc2C1NC(=O)NCCCl (stereo not drawn) [Compound 31.001] | – | – | pest or weed control at 200 ppm [1]: ≥ 80%; pest or weed control at 24 ppm [2]: ≥ 80% |
| CC1CC(NC(=O)NCCCl)c2ccccc21 (stereo not drawn) [Compound 31.002] | – | – | pest or weed control at 200 ppm [1]: ≥ 80%; pest or weed control at 24 ppm [2]: ≥ 80% |
| O=C(NCCCl)NC1CCc2c(F)cccc21 (stereo not drawn) [Compound 31.016] | – | – | pest or weed control at 200 ppm [1]: ≥ 80%; pest or weed control at 24 ppm [2]: ≥ 80% |
| O=C(NCCCl)NC1CCc2ccccc21 (stereo not drawn) [Compound 31.018] | – | – | pest or weed control at 200 ppm [1]: ≥ 80%; pest or weed control at 24 ppm [2]: ≥ 80% |
